According to patent publication US5736555A, “Heterocyclic compounds and their use as angiotensin antagonists” (Takeda Chemical Industries, Ltd., priority 1991, dated 1998):
Values belong to the compound of their own block, whether it stands above or below them.

Key:
[1] = system: A-II-induced pressor action; assay: Inhibitory Effect of the Compound of the Present Invention on Pressor Action of AII (p.o.); format: in vivo, rat (Jcl: SD); settings: rat, AII 100 ng/kg i.v.; for inhibition in vivo at 1 mg/kg / inhibition in vivo at 3 mg/kg: po, read-out: Pressor Response to A II (p.o.), percent inhibition class; for inhibition in vivo at 3 mg/kg: 3 mg/kg p.o.
Excerpt: Inhibitory Effect of the Compound of the Present Invention on Pressor Action of AII
Jcl: SD rat (9 week old, male) were employed. On the day prior to the experiment, these animals were applied with cannulation into the femoral artery and vein under anesthesia with pentobarbital Na. These animals were fasted but allowed to free access to drinking water until the experiment was started. Just on the day of conducting the experiment, the artery cannula was connected with a blood-pressure transducer, and the average blood pressure was recorded by means of polygraph. Before administration of the drug, the pressor action due to intravenous administration of AII (100 ng/kg) as the control was determined. The drugs were orally administered, then, at each point of the determination, A-II was administered intravenously, and the pressor action was similarly determined. By comparing the pressor action before and after administration of the drug, the percent inhibition by the drug on A-II-induced pressor action was evaluated.

[2] = target: T1, angiotensin II (A-II) receptor (Bos taurus, UniProt P25104); assay: Inhibitory Effect of Binding of Angiotensin-II to Angiotensin Receptor (radioreceptor assay, 125I-AII, adrenal cortex membrane fraction); settings: bovine adrenal cortex membrane, room temperature, one hour
T1 construct: An A-II receptor membrane fraction was prepared from bovine adrenal cortex; from tissue; host or cells: bovine adrenal cortex membrane fraction
T1 sequence (P25104 1-359): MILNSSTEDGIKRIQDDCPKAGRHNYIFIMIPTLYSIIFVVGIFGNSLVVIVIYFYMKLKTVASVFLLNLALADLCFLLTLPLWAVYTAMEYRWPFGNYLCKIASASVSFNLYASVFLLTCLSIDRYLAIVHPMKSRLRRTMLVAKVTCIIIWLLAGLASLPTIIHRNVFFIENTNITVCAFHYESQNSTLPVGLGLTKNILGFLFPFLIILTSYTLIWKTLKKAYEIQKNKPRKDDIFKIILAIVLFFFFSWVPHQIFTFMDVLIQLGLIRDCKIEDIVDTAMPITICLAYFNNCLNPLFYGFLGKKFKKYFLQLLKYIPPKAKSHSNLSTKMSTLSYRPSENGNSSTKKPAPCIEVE
Procedure: Inhibitory Effect of Binding of Angiotensin-II to Angiotensin Receptor
An A-II receptor membrane fraction was prepared from bovine adrenal cortex.

[3] = reported in literature; cited from earlier work

Compound: CCOc1nc2cccc(C(=O)O)c2n1Cc1ccc(-c2ccccc2-c2nc(=O)o[nH]2)cc1 [Example 1, 2-Ethoxy-1-[[2'-(2,5-dihydro-5-oxo-1,2,4-oxadiazol-3-yl)biphenyl-4-yl]methyl]benzimidazole-7-carboxylic Acid]
inhibition in vivo at 1 mg/kg ([1]; 1 mg/kg p.o.): > 70%
inhibition in vivo at 3 mg/kg [1]: > 70%
inhibition at 1 µM ([2]; 10^-6 M): 79%
inhibition at 0.1 µM ([2]; 10^-7 M): 34%

Compound: CCOc1nc2cccc(C(=O)OC)c2n1Cc1ccc(-c2ccccc2C2=NOS(=O)N2)cc1 (centres unmarked) [Example 3, Methyl 2-ethoxy-1-[[2'-(2-oxo-3H-1,2,3,5-oxathiadiazol-4-yl)biphenyl]methyl]benzimidazole-7-carboxylate]
inhibition in vivo at 3 mg/kg [1]: > 70%
inhibition at 1 µM ([2]; 10^-6 M): 75%
inhibition at 0.1 µM ([2]; 10^-7 M): 33%

Compound: CCOc1nc2cccc(C(=O)OC(C)OC(=O)OC3CCCCC3)c2n1Cc1ccc(-c2ccccc2-c2nc(=O)o[nH]2)cc1 (centres unmarked) [Example 4, 1-(Cyclohexyloxycarbonyloxy)ethyl 2-ethoxy-1-[[2'-(2,5-dihydro-5-oxo-1,2,4-oxadiazol-3-yl)biphenyl-4-yl]methyl]benzimidazole-7-carboxylate]
inhibition in vivo at 1 mg/kg ([1]; 1 mg/kg p.o.): > 70%
inhibition at 1 µM ([2]; 10^-6 M): 44%
inhibition at 0.1 µM ([2]; 10^-7 M): 17%

Compound: CCSc1nc2c(C)sc(C(=O)O)c2n1Cc1ccc(-c2ccccc2-c2noc(=O)[nH]2)cc1 [Example 8, 2-Ethylthio-1-[[2'-(2,5-dihydro-5-oxo-1,2,4-oxadiazol-3-yl)biphenyl-4-yl]methyl]-4-methylthieno[3,4-d]imidazole-6-carboxylic Acid]
inhibition in vivo at 1 mg/kg ([1]; 1 mg/kg p.o.): > 70%
inhibition at 1 µM ([2]; 10^-6 M): 40%
inhibition at 0.1 µM ([2]; 10^-7 M): 8%

Compound: COc1nc2c(C)sc(C(=O)O)c2n1Cc1ccc(-c2ccccc2-c2nc(=O)o[nH]2)cc1 [Example 9, 2-Methoxy-1-[[2'-(2,5-dihydro-5-oxo-1,2,4-oxadiazol-3-yl)biphenyl-4-yl]methyl]-4-methylthieno[3,4-d]imidazole-6-carboxylic Acid]
inhibition in vivo at 1 mg/kg ([1]; 1 mg/kg p.o.): > 70%
inhibition in vivo at 3 mg/kg [1]: > 70%
inhibition at 1 µM ([2]; 10^-6 M): 55%
inhibition at 0.1 µM ([2]; 10^-7 M): 19%

Compound: CCOc1nc2c(C)sc(C(=O)O)c2n1Cc1ccc(-c2ccccc2-c2nc(=O)o[nH]2)cc1 [Example 10, 2-Ethoxy-1-[[2'-(2,5-dihydro-5-oxo-1,2,4-oxadiazol-3-yl)biphenyl-4-yl]methyl]-4-methylthieno[3,4-d]imidazole-6-carboxylic Acid]
inhibition in vivo at 1 mg/kg ([1]; 1 mg/kg p.o.): > 70%
inhibition at 1 µM ([2]; 10^-6 M): 51%
inhibition at 0.1 µM ([2]; 10^-7 M): 17%

Compound: CCCOc1nc2c(C)sc(C(=O)O)c2n1Cc1ccc(-c2ccccc2-c2nc(=O)o[nH]2)cc1 [Example 11, 1-[2'-(2,5-Dihydro-5-oxo-1,2,4-oxadiazol-3-yl)biphenyl-4-yl]methyl-4-methyl-2-n-propoxythieno[3,4-d]imidazole-6-carboxylic Acid]
inhibition in vivo at 1 mg/kg ([1]; 1 mg/kg p.o.): > 70%
inhibition at 1 µM ([2]; 10^-6 M): 41%

Compound: CCNc1nc2c(C)sc(C(=O)O)c2n1Cc1ccc(-c2ccccc2-c2nc(=O)o[nH]2)cc1 [Example 12, 2-Ethylamino-1-[[2'-(2,5-dihydro-5-oxo-1,2,4-oxadiazol-3-yl)biphenyl-4-yl]methyl]-4-methylthieno[3,4-d]imidazole-6-carboxylic Acid]
inhibition in vivo at 1 mg/kg ([1]; 1 mg/kg p.o.): < 50%
inhibition at 1 µM ([2]; 10^-6 M): 78%
inhibition at 0.1 µM ([2]; 10^-7 M): 46%

Compound: COC(=O)c1cccc2nc(C3CC3)n(Cc3ccc(-c4ccccc4-c4nc(=O)o[nH]4)cc3)c12 [Example 32c, Methyl 2-cyclopropyl-1-[[2'-(2,5-dihydro-5-oxo-1,2,4-oxadiazol-3-yl)biphenyl-4-yl]methyl]-benzimidazole-7-carboxylate]
inhibition in vivo at 1 mg/kg ([1]; 1 mg/kg p.o.): > 70%
inhibition at 1 µM ([2]; 10^-6 M): 79%
inhibition at 0.1 µM ([2]; 10^-7 M): 40%

Compound: CCc1nc2c(C)cc(C(=O)O)nc2n1Cc1ccc(-c2ccccc2-c2nc(=O)o[nH]2)cc1 [Example 56, 2-Ethyl-3-[[2'-(2,5-dihydro-5-oxo-1,2,4-oxadiazol-3-yl)biphenyl-4-yl]methyl]-7-methylimidazo[4,5-b]pyridine-5-carboxylic acid]
inhibition in vivo at 1 mg/kg ([1]; 1 mg/kg p.o.): > 70%
inhibition at 1 µM ([2]; 10^-6 M): 94%
inhibition at 0.1 µM ([2]; 10^-7 M): 80%

Compound: CCOc1nc2cccc(C(=O)OC)c2n1Cc1ccc(-c2ccccc2-c2nc(=O)s[nH]2)cc1 [Example 60, Methyl 2-ethoxy-1-[[2'-(2,5-dihydro-5-oxo-1,2,4-thiadiazol-3-yl)biphenyl-4-yl]methyl]benzimidazole-7-carboxylate]
inhibition in vivo at 1 mg/kg ([1]; 1 mg/kg p.o.): > 70%
inhibition at 1 µM ([2]; 10^-6 M): 84%
inhibition at 0.1 µM ([2]; 10^-7 M): 43%

Compound: CNCC(=O)N[C@@H](CCCN=C(N)N)C(=O)N[C@H](C(=O)N[C@@H](Cc1ccc(O)cc1)C(=O)N[C@H](C(=O)N[C@@H](Cc1cnc[nH]1)C(=O)N1CCC[C@H]1C(=O)N[C@@H](C)C(=O)O)C(C)C)C(C)C [saralasin]
angiotensin II antagonist activity [3]: potent

Compound: Acetoxymethyl 1-[[2'-(4-acetoxymethyl-4,5-dihdyro-5-oxo-4H-1,2,4-oxadiazol-3-yl)biphenyl-4-yl]methyl]-2-ethoxybenzimidazole-7-carboxylate [Example 13]
Pressor Response to A II (p.o.), percent inhibition class ([1]; 1 mg/kg p.o.): +++ (+++ ≥ 70%)
Radioreceptor assay % inhibition ([2]; 10^-6 M): 69%
Radioreceptor assay % inhibition ([2]; 10^-7 M): 31%

Continued, in another order:

inhibition at 1 µM ([2]; 10^-6 M): 77%
inhibition at 0.1 µM ([2]; 10^-7 M): 35%
Compound: CCCc1nc2cccc(C(=O)O)c2n1Cc1ccc(-c2ccccc2-c2nc(=O)o[nH]2)cc1 [Example 30, 1-[[2'-(2,5-Dihydro-5-oxo-1,2,4-oxadiazol-3-yl)biphenyl-4-yl]methyl]-2-propylbenzimidazole-7-carboxylic Acid]
inhibition in vivo at 1 mg/kg ([1]; 1 mg/kg p.o.): > 70%

inhibition at 1 µM ([2]; 10^-6 M): 79%
inhibition at 0.1 µM ([2]; 10^-7 M): 41%
Compound: CCc1nc2cccc(C(=O)O)c2n1Cc1ccc(-c2ccccc2-c2nc(=O)o[nH]2)cc1 [Example 31, 2-Ethyl-1-[[2'-(2,5-dihydro-5-oxo-1,2,4-oxadiazol-3-yl)-biphenyl-4-yl]methyl]benzimidazole-7-carboxylic Acid]
inhibition in vivo at 1 mg/kg ([1]; 1 mg/kg p.o.): > 70%

inhibition at 1 µM ([2]; 10^-6 M): 75%
inhibition at 0.1 µM ([2]; 10^-7 M): 27%
Compound: O=C(O)c1cccc2nc(C3CC3)n(Cc3ccc(-c4ccccc4-c4noc(=O)[nH]4)cc3)c12 [Example 32, 2-Cyclopropyl-1-[[2'-(2,5-dihydro-5-oxo-1,2,4-oxadiazol-3-yl)biphenyl-4-yl]methyl]benzimidazole-7-carboxylic acid]
inhibition in vivo at 1 mg/kg ([1]; 1 mg/kg p.o.): > 70%

inhibition at 1 µM ([2]; 10^-6 M): 70%
inhibition at 0.1 µM ([2]; 10^-7 M): 23%
Compound: CCCCc1nc2cccc(C(=O)O)c2n1Cc1ccc(-c2ccccc2-c2noc(=O)[nH]2)cc1 [Example 33, 2-Butyl-1-[[2'-(2,5-dihydro-5-oxo-1,2,4-oxadiazol-3-yl)-biphenyl-4-yl]methyl]benzimidazole-7-carboxylic acid]
inhibition in vivo at 1 mg/kg ([1]; 1 mg/kg p.o.): 50 to 70%

inhibition at 1 µM ([2]; 10^-6 M): 79%
inhibition at 0.1 µM ([2]; 10^-7 M): 38%
Compound: COc1nc2cccc(C(=O)O)c2n1Cc1ccc(-c2ccccc2-c2noc(=O)[nH]2)cc1 [Example 35, 1-[[2'-(2,5-Dihydro-5-oxo-1,2,4-oxadiazol-3-yl)biphenyl-4-yl]methyl]-2-methoxybenzimidazole-7-carboxylic acid]
inhibition in vivo at 1 mg/kg ([1]; 1 mg/kg p.o.): > 70%

inhibition at 1 µM ([2]; 10^-6 M): 60%
inhibition at 0.1 µM ([2]; 10^-7 M): 18%
Compound: CCCOc1nc2cccc(C(=O)O)c2n1Cc1ccc(-c2ccccc2-c2nc(=O)o[nH]2)cc1 [Example 36, 1-[[2'-(2,5-Dihydro-5-oxo-1,2,4-oxadiazol-3-yl)biphenyl-4-yl]methyl]-2-propoxybenzimidazole-7-carboxylic acid]
inhibition in vivo at 1 mg/kg ([1]; 1 mg/kg p.o.): > 70%
